This note sets out measurements from US20260193163A1, “CRYSTAL FORM OF L-ARGININE (S)-2-(1-ACETOXY-N-PENTYL)BENZOATE, AND PREPARATION METHOD THEREFOR AND USE THEREOF” (JIANGSU KANION PHARMACEUTICAL CO., LTD., priority 2023, published 2026).

Data set [1] is described as follows: Crystal form stability study (PXRD, DSC, TGA on day 0, 5, 10). Conditions: 10 days. Format: physicochemical. As for the experimental part: Samples of crystal form I were subjected to physical stability tests under different storage conditions. The storage conditions were respectively: • (1) High temperature: 60° C. • (2) High humidity: RH 90%±5% • (3) Under light exposure: 4500 lx±500 lx, with the total illumination from the light source reaching 1.2×10^6 lux·hr PXRD, DSC, and TGA tests were performed on the samples on day 0, day 5, and day 10, respectively, to investigate the stability of the samples under high temperature, high humidity, and light exposure conditions. The experimental results are detailed in FIG. 8 to FIG. 16 of the description.

Data set [2] can be described thus: Intrinsic dissolution rate in SGF or FeSSIF. It counts as physicochemical. The conditions noted are these: 37° C., 100 rpm, 5-120 min, HPLC. On the procedure: Samples of crystal form I (25 mg each) were weighed, placed into intrinsic dissolution rate metal modules, and maintained at a pressure of 20 pounds for 30 s and then placed in 20 mL of SGF (Simulated Gastric Fluid) or FeSSIF (Fed-State Simulated Intestinal Fluid) physiological medium, respectively. The medium was maintained at 37° C. and a rotation speed at 100 rpm throughout the process. Then, at 5, 15, 30, 45, 60, 90, and 120 min, respectively, a 0.5 mL aliquot of the solution was taken and filtered through a 0.22 μm aqueous microfiltration membrane. And the volume was replenished with 0.5 mL of the corresponding physiological medium. The concentration was determined according to an HPLC content assay method.

`CCCC[C@H](OC(C)=O)c1ccccc1C(=O)O` [crystal form I, L-arginine (S)-2-(1-acetoxy-n-pentyl)benzoate]: the “Change of powder diffraction pattern, DSC trace and TGA trace (physical stability, crystal form transformation)” value in data set [1] (high humidity RH 90%±5%) was “no significant difference”; in data set [1] (high temperature 60° C.), “no significant difference”; in data set [1] (light exposure 4500 lx±500 lx, total illumination 1.2×10^6 lux·hr) it was “no significant difference”. In addition, in data set [2], the “Dissolution rate compared with the solid obtained in Comparative Example 1” value is listed as “significantly higher”.
